Where two headings read alike, the source gives them in different places.
Key:
Format in all cases: in vivo
[1] = test system: Beet Armyworm (BAW) (Spodoptera exigua); assay: Bioassay on beet armyworm (BAW), 128-well diet tray assay; settings: 168 h, read-out: % Mortality BAW 50 μg/cm^2
Description: (§1) Certain molecules disclosed in this document were tested against BAW and CEW using procedures described in the following examples. In the reporting of the results, the “BAW & CEW Rating Table” was used (See Table Section).
Bioassays on BAW (Spodoptera exigua)
Bioassays on BAW were conducted using a 128-well diet tray assay. One to five second instar BAW larvae were placed in each well (3 mL) of the diet tray that had been previously filled with 1 mL of artificial diet to which 50 μg/cm^2 of the test compound (dissolved in 50 μL of 90:10 acetone-water mixture) had been applied (to each of eight wells) and then allowed to dry. Trays were covered with a clear self-adhesive cover, and held at 25° C., 14:10 light-dark for five to seven days. Percent mortality was recorded for the larvae in each well; activity in the eight wells was then averaged. The results are indicated in the table entitled “Table: Bio Results” (See Table Section).

[2] = test system: Corn Earworm (CEW) (Helicoverpa zea); assay: Bioassay on corn earworm (CEW), 128-well diet tray assay; settings: 168 h, read-out: % Mortality CEW 50 μg/cm^2
Description: as §1
Bioassays on CEW (Helicoverpa zea)
Bioassays on CEW were conducted using a 128-well diet tray assay. One to five second instar CEW larvae were placed in each well (3 mL) of the diet tray that had been previously filled with 1 mL of artificial diet to which 50 μg/cm^2 of the test compound (dissolved in 50 μL of 90:10 acetone-water mixture) had been applied (to each of eight wells) and then allowed to dry. Trays were covered with a clear self-adhesive cover, and held at 25° C., 14:10 light-dark for five to seven days. Percent mortality was recorded for the larvae in each well; activity in the eight wells was then averaged. The results are indicated in the table entitled “Table: Bio Results” (See Table Section).

[3] = test system: Green Peach Aphid (GPA) (Myzus persicae); assay: Bioassay on green peach aphid (GPA), foliar spray on cabbage seedlings; settings: 72 h, read-out: % Mortality GPA 200 ppm
Description: Certain molecules disclosed in this document were tested against GPA using procedures described in the following example. In the reporting of the results, the “GPA Rating Table” was used (See Table Section).
Cabbage seedlings grown in 3-inch pots, with 2-3 small (3-5 cm) true leaves, were used as test substrate. The seedlings were infested with 20-50 GPA (wingless adult and nymph stages) one day prior to chemical application. Four pots with individual seedlings were used for each treatment. Test compounds (2 mg) were dissolved in 2 mL of acetone/methanol (1:1) solvent, forming stock solutions of 1000 ppm test compound. The stock solutions were diluted 5× with 0.025% Tween 20 in H2O to obtain the solution at 200 ppm test compound. A hand-held aspirator-type sprayer was used for spraying a solution to both sides of […] leaves until runoff. Reference plants (solvent check) were sprayed with the diluent only containing 20% by volume of acetone/methanol (1:1) solvent. Treated plants were held in a holding room for three days at approximately 25° C. and ambient relative humidity (RH) prior to grading. Evaluation was conducted by counting the number of live aphids per plant under a microscope. Percent Control was measured by using Abbott's correction formula (W. S. Abbott, “A Method of Computing the Effectiveness of an Insecticide” J. Econ. Entomol. 18 (1925), pp. 265-267) as follows. Corrected % Control=100*(X−Y)/X • where • X=No. of live aphids on solvent check plants and • Y=No. of live aphids on treated plants

[4] = 50 μg/cm^2 on artificial diet, second instar larvae, 25° C., five to seven days, average of eight wells
[5] = 200 ppm foliar spray on cabbage seedlings, graded after three days, Abbott corrected % control

Row | Compound | mortality at 50 µg/cm2 [1, 4] [%] | mortality at 50 µg/cm2 [2, 4] [%] | mortality at 200 ppm [3, 5] [%] | mortality at 50 µg/cm2 [1] [%] | mortality at 50 µg/cm2 [2] [%] | mortality at 200 ppm ([3]; foliar) [%]
1 | CC(C)(C)OC(=O)NC1CC1c1ccc(-c2ncn(-c3ccc(OC(F)(F)F)cc3)n2)cc1 (centres unmarked) [Compound 17, tert-Butyl 2-(4-(1-(4-(trifluoromethoxy)phenyl)-1H-1,2,4-triazol-3-yl)phenyl)-cyclopropylcarbamate] | 50 to 100 | 50 to 100 | 0 | – | – | –
2 | FC(F)(F)Oc1ccc(-n2cnc(-c3ccc(C4CC4NC(=S)Nc4ccc(C(F)(F)F)cc4)cc3)n2)cc1 (centres unmarked) [Compound 8, 1-(2-{4-[1-(4-Trifluoromethoxyphenyl)-1H-[1,2,4]triazol-3-yl]phenyl}-cyclopropyl)-3-(4-trifluoromethylphenyl)thiourea] | 50 to 100 | 50 to 100 | 0 to 80 | – | – | –
3 | COc1ccc(NC(=S)NC2CC2c2ccc(-c3ncn(-c4ccc(OC(F)(F)F)cc4)n3)cc2)c(C(C)C)c1 (centres unmarked) [Compound 13, 1-(2-Isopropyl-4-methoxyphenyl)-3-(2-(4-(1-(4-(trifluoromethoxy)phenyl)-1H-1,2,4-triazol-3-yl)phenyl)cyclopropyl)thiourea] | 50 to 100 | 50 to 100 | 0 | – | – | –
4 | FC(F)(F)Oc1ccc(-n2cnc(-c3ccc(C4CC4NC(=S)Nc4ccccc4Cl)cc3)n2)cc1 (centres unmarked) [Compound 5, 1-(2-Chlorophenyl)-3-(2-{4-[1-(4-trifluoromethoxyphenyl)-1H-[1,2,4]triazol-3-yl]phenyl}cyclopropyl)thiourea] | 50 to 100 | 50 to 100 | 0 | – | – | –
5 | Cc1cc(C)c(NC(=O)NC2CC2c2ccc(-c3ncn(-c4ccc(OC(F)(F)F)cc4)n3)cc2)c(C)c1 (centres unmarked) [Compound 30, 1-Mesityl-3-(2-(4-(1-(4-(trifluoromethoxy)phenyl)-1H-1,2,4-triazol-3-yl)phenyl)-cyclopropyl)urea] | 0 | 0 | 0 to 80 | – | – | –
6 | CN(C)c1ccc(NC(=S)NC2CC2c2ccc(-c3ncn(-c4ccc(OC(F)(F)F)cc4)n3)cc2)cc1 (centres unmarked) [Compound 7, 1-(4-Dimethylaminophenyl)-3-(2-{4-[1-(4-trifluoromethoxyphenyl)-1H-[1,2,4]triazol-3-yl]phenyl}cyclopropyl)thiourea] | 50 to 100 | 50 to 100 | 0 | – | – | –
7 | CC(OC(=O)NC1CC1c1ccc(-c2ncn(-c3ccc(OC(F)(F)F)cc3)n2)cc1)c1ccccn1 (centres unmarked) [Compound 20, 1-(Pyridin-2-yl)ethyl 2-(4-(1-(4-(trifluoromethoxy)phenyl)-1H-1,2,4-triazol-3-yl)phenyl)-cyclopropylcarbamate] | – | – | – | 50 to 100 | 50 to 100 | 0 to 80
8 | O=C(NC1CC1c1ccc(-c2ncn(-c3ccc(OC(F)(F)F)cc3)n2)cc1)NC1CC1c1ccc(-c2ncn(-c3ccc(OC(F)(F)F)cc3)n2)cc1 (centres unmarked) [Compound 32, 1,3-bis(2-(4-(1-(4-(trifluoromethoxy)phenyl)-1H-1,2,4-triazol-3-yl)phenyl)cyclopropyl)urea] | 0 | 50 to 100 | 0 to 80 | – | – | –
9 | O=C(Nc1c(Cl)cccc1Cl)NC1CC1c1ccc(-c2ncn(-c3ccc(OC(F)(F)F)cc3)n2)cc1 (centres unmarked) [Compound 31, 1-(2,6-Dichlorophenyl)-3-(2-(4-(1-(4-(trifluoromethoxy)phenyl)-1H-1,2,4-triazol-3-yl)phenyl)cyclopropyl)urea] | 0 | 0 | 0 | – | – | –
10 | COc1cc(C)c(NC(=S)NC2CC2c2ccc(-c3ncn(-c4ccc(OC(F)(F)F)cc4)n3)cc2)c(C)n1 (centres unmarked) [Compound 14, 1-(6-Methoxy-2,4-dimethylpyridin-3-yl)-3-(2-(4-(1-(4-(trifluoromethoxy)-phenyl)-1H-1,2,4-triazol-3-yl)phenyl)cyclopropyl)thiourea] | 50 to 100 | 50 to 100 | 0 to 80 | – | – | –
11 | CC(OC(=O)NC1CC1c1ccc(-c2ncn(-c3ccc(OC(F)(F)F)cc3)n2)cc1)c1ccccc1 (centres unmarked) [Compound 19, 1-Phenylethyl 2-(4-(1-(4-(trifluoromethoxy)phenyl)-1H-1,2,4-triazol-3-yl)phenyl)-cyclopropylcarbamate] | – | – | – | 0 | 50 to 100 | 0 to 80
12 | CCc1cccc(CC)c1NC(=S)NC1CC1c1ccc(-c2ncn(-c3ccc(OC(F)(F)F)cc3)n2)cc1 (centres unmarked) [Compound 6, 1-(2,6-Diethylphenyl)-3-(2-{4-[1-(4-trifluoromethoxyphenyl)-1H-[1,2,4]triazol-3-yl]phenyl}cyclopropyl)thiourea] | 50 to 100 | 50 to 100 | 0 to 80 | – | – | –
13 | O=C(NC1CC1c1ccc(-c2ncn(-c3ccc(OC(F)(F)F)cc3)n2)cc1)Oc1c(Cl)cccc1Cl (centres unmarked) [Compound 28, 2,6-Dichlorophenyl 2-(4-(1-(4-(trifluoromethoxy)phenyl)-1H-1,2,4-triazol-3-yl)phenyl)-cyclopropylcarbamate] | – | – | – | 0 | 0 | 0 to 80
14 | Cc1cccc(C)c1NC(=S)NC1CC1c1ccc(-c2ncn(-c3ccc(OC(F)(F)F)cc3)n2)cc1 (centres unmarked) [Compound 12, 1-(2,6-Dimethylphenyl)-3-(2-(4-(1-(4-(trifluoromethoxy)phenyl)-1H-1,2,4-triazol-3-yl)phenyl)cyclopropyl)thiourea] | 50 to 100 | 50 to 100 | 0 to 80 | – | – | –
15 | CC(C)(C)c1ccccc1OC(=O)NC1CC1c1ccc(-c2ncn(-c3ccc(OC(F)(F)F)cc3)n2)cc1 (centres unmarked) [Compound 24, 2-tert-Butylphenyl 2-(4-(1-(4-(trifluoromethoxy)phenyl)-1H-1,2,4-triazol-3-yl)phenyl)-cyclopropylcarbamate] | – | – | – | 50 to 100 | 0 | 0 to 80
16 | FC(F)(F)Oc1ccc(-n2cnc(-c3ccc(C4CC4NC(=S)Nc4c(Cl)cccc4Cl)cc3)n2)cc1 (centres unmarked) [Compound 2, 1-(2,6-Dichlorophenyl)-3-(2-{4-[1-(4-trifluoromethoxyphenyl)-1H-[1,2,4]triazol-3-yl]phenyl}cyclopropyl)thiourea] | 50 to 100 | 50 to 100 | 0 to 80 | – | – | –
17 | CC(C)c1ccccc1OC(=O)NC1CC1c1ccc(-c2ncn(-c3ccc(OC(F)(F)F)cc3)n2)cc1 (centres unmarked) [Compound 29, 2-Isopropylphenyl 2-(4-(1-(4-(trifluoromethoxy)phenyl)-1H-1,2,4-triazol-3-yl)phenyl)-cyclopropylcarbamate] | – | – | – | 50 to 100 | 50 to 100 | 0
18 | Cc1cccc(C)c1/N=C(/NC1CC1c1ccc(-c2ncn(-c3ccc(OC(F)(F)F)cc3)n2)cc1)SCOC(=O)C(C)C (centres unmarked) [Compound 15, (Z)-(N′-(2,6-dimethylphenyl)-N-(2-(4-(1-(4-(trifluoromethoxy)phenyl)-1H-1,2,4-triazol-3-yl)phenyl)cyclopropyl)-carbamimidoylthio)methyl isobutyrate] | – | – | 0 to 80 | – | – | –
19 | FC(F)(F)Oc1ccc(-n2cnc(-c3ccc(C4CC4NC(=S)Nc4ccccc4)cc3)n2)cc1 (centres unmarked) [Compound 1, 1-phenyl-3-(2-{4-[1-(4-trifluoromethoxyphenyl)-1H-[1,2,4]triazol-3-yl]phenyl}cyclopropyl)thiourea] | 50 to 100 | 50 to 100 | 0 | – | – | –
20 | Cc1cc(C)c(/N=C(/NC2CC2c2ccc(-c3ncn(-c4ccc(OC(F)(F)F)cc4)n3)cc2)SCOC(=O)C(C)C)c(C)c1 (centres unmarked) [Compound 16, (Z)-(N′-Mesityl-N-(2-(4-(1-(4-(trifluoromethoxy)phenyl)-1H-1,2,4-triazol-3-yl)phenyl)cyclopropyl)carbamimidoylthio)methyl isobutyrate] | – | – | 0 | – | – | –

— patent publication US9107410B2, “Pesticidal compositions and processes related thereto” (Dow AgroSciences LLC, priority 2011, dated 2015)
